From article PMC8668186, “Molecular architecture of the human tRNA ligase complex” (eLife, 2021)

Molecular target: T1, RTCB (Homo sapiens, UniProt Q9Y3I0)
T1 construct: full length (505 residues), N-terminal His6 tag removed with TEV protease, expressed in Sf9 insect cells; model residues 3-505 with gaps
T1 sequence (Q9Y3I0 1-505): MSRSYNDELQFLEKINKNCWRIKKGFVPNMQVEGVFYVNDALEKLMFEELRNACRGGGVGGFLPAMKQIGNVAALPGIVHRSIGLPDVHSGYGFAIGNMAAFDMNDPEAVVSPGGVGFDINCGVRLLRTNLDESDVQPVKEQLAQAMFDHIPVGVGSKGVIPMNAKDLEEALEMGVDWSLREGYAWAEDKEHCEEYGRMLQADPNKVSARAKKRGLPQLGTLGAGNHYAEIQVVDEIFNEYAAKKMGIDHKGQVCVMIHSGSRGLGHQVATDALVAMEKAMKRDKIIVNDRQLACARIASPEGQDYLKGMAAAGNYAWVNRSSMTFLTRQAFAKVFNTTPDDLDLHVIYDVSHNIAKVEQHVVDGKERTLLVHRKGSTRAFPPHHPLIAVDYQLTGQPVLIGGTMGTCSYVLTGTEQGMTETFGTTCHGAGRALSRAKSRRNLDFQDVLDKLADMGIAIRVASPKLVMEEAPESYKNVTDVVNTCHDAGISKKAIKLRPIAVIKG
Assay: X-ray crystal structure, […] Å
Format: binding
Conditions: two Co2+ ions in active site, crystallised at pH 5.5, 20 °C, 5 mM CoCl2, 0.5 mM GMP, non-covalent product-bound state

Nc1nc2c(ncn2[C@@H]2O[C@H](COP(=O)(O)O)[C@@H](O)[C@H]2O)c(=O)[nH]1 [GMP]
X-ray crystal structure, 2.3 Å: crystal structure of human RTCB in complex with a GMP molecule and two divalent cobalt
